Reference: PubChem BioAssay (NCI)
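Briefly, cells in 96-well plates were exposed to five compound concentrations for 48 h, and endpoints were estimated by linear interpolation. TGI is the concentration that stops growth completely.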

Tests used:
Experiment in all cases: NCI-60 cell line screen, 48 h
[1] = system: NCI-H460 lung
[2] = system: IGROV1 ovarian
[3] = system: A498 renal
[4] = system: HCT-15 colon
[5] = system: MCF7 breast
[6] = system: CCRF-CEM leukemia
[7] = system: SNB-19 CNS
[8] = system: NCI/ADR-RES ovarian
[9] = system: ACHN renal
[10] = system: HS 578T breast
[11] = system: OVCAR-5 ovarian
[12] = system: MDA-N
[13] = system: SW-620 colon
[14] = system: LOX IMVI melanoma
[15] = system: TK-10 renal
[16] = system: UACC-62 melanoma
[17] = system: SF-268 CNS
[18] = system: K-562 leukemia
[19] = system: RXF 393 renal
[20] = system: U251 CNS
[21] = system: COLO 205 colon
[22] = system: PC-3 prostate
[23] = system: OVCAR-4 ovarian
[24] = system: A549 NSCLC
[25] = system: DU-145 prostate
[26] = system: NCI-H23 lung
[27] = system: SN12C renal
[28] = system: SF-295 CNS
[29] = system: HCC-2998 colon
[30] = system: HOP-62 NSCLC
[31] = system: NCI-H226 lung
[32] = system: OVCAR-8 ovarian
[33] = system: HT29 colon
[34] = system: MOLT-4 leukemia
[35] = system: SNB-75 CNS
[36] = system: MDA-MB-435
[37] = system: OVCAR-3 ovarian
[38] = system: RPMI-8226 leukemia
[39] = system: HCT-116 colon
[40] = system: BT-549 breast
[41] = system: UACC-257 melanoma
[42] = system: MDA-MB-231 breast
[43] = system: SR leukemia
[44] = system: SF-539 CNS
[45] = system: MALME-3M melanoma
[46] = system: HOP-92 NSCLC
[47] = system: KM12 colon
[48] = system: SK-MEL-5 melanoma
[49] = system: UO-31 renal
[50] = system: 786-0 renal
[51] = system: EKVX NSCLC
[52] = system: SK-MEL-28 melanoma
[53] = system: SK-MEL-2 melanoma
[54] = system: M14 melanoma
[55] = system: NCI-H522 lung
[56] = system: CAKI-1 renal
[57] = system: HL-60(TB) leukemia
[58] = system: SK-OV-3 ovarian

Measured: TGI

O=C1c2cc3ncsc3cc2C(=O)c2c(O)ccc(O)c21
not listed: [57] | [58]
> 100 µM: all other assays above

O=c1onc(Nc2ccccc2)n1-c1ccccc1
not listed: [17] | [25] | [36] | [38] | [55]
> 100 µM: all other assays above
